Columns and labels:
[1] = test system: General Heterotrophic Bacteria; assay: Quantitative suspension test (planktonic bacteria) in WHO water; type: cell-based; settings: 50 ppm ai THPS
Source text: Quantitative Suspension Test (Planktonic Bacteria) in WHO Water

GHB [2] = assay: Quantitative suspension test in de inking water, GHB; type: cell-based, general heterotrophic bacteria; settings: 75 ppm ai THPS, 3 hour contact
Source text: (§1) Quantitative Suspension Test in De Inking Water

SRB [3] = assay: Quantitative suspension test in de inking water, SRB; type: cell-based, sulphate reducing bacteria; settings: 75 ppm ai THPS, 3 hour contact
Source text: as §1

GHB [4] = assay: Biofilm (sessile) test, freshwater (WHO); type: cell-based, general heterotrophic bacteria; settings: after 75 ppm ai THPS dosed for 3 hours
Source text: Biofilm (Sessile) Tests: Freshwater (WHO)

GHB [5] = assay: Biofilm test, seawater (SMOW), GHB; type: cell-based, general heterotrophic bacteria; settings: after 75 ppm ai THPS dosed for 3 hours
Source text: (§2) Biofilm Tests: Seawater (SMOW)

SRB [6] = assay: Biofilm test, seawater (SMOW), SRB; type: cell-based, sulphate reducing bacteria; settings: after 75 ppm ai THPS dosed for 3 hours
Source text: as §2

tetrakis(hydroxymethyl)phosphonium sulphate [Unformulated THPS]
Log Reduction of General Heterotrophic Bacteria ([1]; 1 hour contact): 1
Log Reduction of General Heterotrophic Bacteria ([1]; 3 hour contact): 5.8
Log reduction values, GHB (GHB [2]): 3.8
Log reduction values, SRB (SRB [3]): 3
Viable bacteria, GHB (GHB [4]): 1 × 10^5
Viable bacteria, GHB (GHB [5]): 1 × 10^2
Viable bacteria, SRB (SRB [6]): 1 × 10^4

Reference: US10178867B2, “Treating microbe contamination in water with THP salts and polymeric biopenetrants” (priority 2004, dated 2019)
